# Data: patent US20140163082A1, “PYRAZOLYL COMPOUNDS FOR USE IN REVERSING REACTIVE GLIOSIS” (priority 2011, published 2014)
# Key:
# [1] = system: R28 cells; assay: Viability assay (DAPI exclusion test), R28; conditions: R28 cells in culture after incubation
# [2] = system: rMC-1 cells; assay: Viability assay (DAPI exclusion test), rMC-1; conditions: rMC-1 cells in culture after incubation
structure (smiles),measurement,setting,value
COc1cccc2c1C(=O)c1c(O)c3c(c(O)c1C2=O)C[C@@](O)(C(=O)CO)C[C@@H]3O[C@H]1C[C@H](N)[C@H](O)[C@H](C)O1 [Doxorubicin],cell viability (DAPI exclusion),[1],significant nonviability staining
same,cell viability (DAPI exclusion),[2],significant nonviability staining
